Laboratory results published in patent US20240181000A1, “LGG-DERIVED PEPTIDES AND METHODS OF USE THEREOF” (Ohio State Innovation Foundation, priority 2021, published 2024).
Like-named read-outs stand apart in the source and are kept apart here. No end group written: not given here.

Tests used:
APEC O78 [1] = assay: Agar-well diffusion assay; assay type: cell-based, E. coli; settings: whole culture, 24 h
Description: Agar-well diffusion assay: To determine the inhibitory activity of commensal and probiotic bacteria against APEC, agar-well diffusion assay was conducted as described previously. Briefly, LB agar plate was spread with 100 μL of APEC O78 (10^7 CFU/mL) and 100 μL of fully grown stationary phase whole cultures (adjusted to OD600: 1) of commensal and probiotic bacteria were aliquoted into the wells bored in the agar plate. The plate was incubated at 37° C., and zone of inhibition was measured at 12 h and 24 h post-incubation. The inhibitory activity of L. rhamnosus GG and B. lactis Bb12 was also tested with different culture volumes (200 μL, 150 μL and 50 μL) and against other APEC serotypes as described above. Assay was also conducted with cell-free supernatants (CF Ss) of L. rhamnosus GG and B. lactis Bb12 and supernatant-free L. rhamnosus GG and B. lactis Bb12 itself. CFSs were prepared by centrifugation of whole cultures at 10,000×g for 10 min at 4° C. followed by filtration through 0.22 μm filter. The supernatant-free cultures were washed once and resuspended in PBS to check the activity of L. rhamnosus GG and B. lactis Bb12 itself. Two independent experiments were conducted. […]

APEC [2] = assay type: in vivo, chickens; settings: in vivo
From the text: FIGS. 57A-57D show the APEC load of chickens (at 7 dpi [days post infection]) treated with either peptides P-1 or P-2.

Salmonella Saintpaul = assay: MIC against serovars; assay type: cell-based
Description: (§1) Peptide protection against varied Salmonella serovars: To further test the spectrum of the peptides anti-Salmonella capabilities, eight additional Salmonella serovars commonly implicated in foodborne illness (S. Anatum, S. Albany, S. Brenderup, S. Javiana, S. Heidelberg, S. Muenchen, S. Newport, S. Saintpaul) were analyzed. P1, P2, and P4 (selected based on dose response assay results) were added to the assay at their MICs to determine their effect on different serovars. Inhibition was determined using criteria from above.

Salmonella Brenderup = assay: MIC against serovars; assay type: cell-based
Description: as §1

APEC [3] = settings: in vivo
Description: FIGS. 58A-58B show the APEC load after treatment 8 days dpi with LGG and 50 mg/mL of peptides in drinking water.

APEC O78 [4] = assay type: cell-based, E. coli
Description: Anti-APEC activity determination: The anti-APEC activity of peptides was determined in LB broth following CLSI guidelines. Briefly, overnight grown APEC O78 was adjusted to 5×10^5 CFU/mL concentration in fresh LB media. One-hundred microliters of APEC suspension was aliquoted into the wells of the 96-well plate. Peptides were added to the wells at 6 mM and 12 mM concentrations and incubated at 37° C. in TECAN Sunrise™ absorbance microplate reader with kinetic absorbance measurement set at every 30 mins for 12 h. Sterile media and DMSO (solvent) were used as controls. The growth inhibitory activity of the peptides against APEC was calculated using the formula: (OD600 DMSO treated well−OD600 peptide treated well)/OD600 DMSO treated well×100%.
The minimum inhibitory concentration (MIC) was determined for selected peptides (P1, P2, P3, and P4) using similar assay as above. Peptides were added to the wells of the 96-well plate at 6 mM, 9 mM, 12 mM, 15 mM, and 18 mM concentrations. The peptide concentration at which there is no visible APEC growth (no OD increase) was determined as MIC. Two independent experiments were conducted.
Arginine and lysine substituted peptide analogues: The non-essential amino acid residues identified in each peptide were substituted with arginine/lysine to test whether these substitutions enhance the anti-APEC activity of peptides. The MICs of arginine and lysine substituted peptide analogues ([…] (SEQ ID NO:37), […] (SEQ ID NO:38), […] (SEQ ID NO:39), KDENK (SEQ ID NO:41), PDEKK (SEQ ID NO:42), KDEKK (SEQ ID NO:43), KHTAPK (SEQ ID NO:45), VKTAPK (SEQ ID NO:46), VHTKPK (SEQ ID NO:47), and KKTKPK (SEQ ID NO:48)) were determined as above and compared with original peptides.

multiple APEC serotypes = assay type: cell-based, E. coli
Description: Anti-APEC spectrum determination: Peptides (P1, P2, and P3) were tested against multiple APEC serotypes/strains to determine their spectrum of activity. Peptides were added at their MICs and the growth inhibitory activity of the peptides was determined as described above.

Salmonella Javiana = assay type: cell-based
Description: as §1

Intracellular APEC = assay: Effect of PN peptides on intracellular APEC; assay type: cell-based, E. coli
ST = assay: Minimal bactericidal concentration of PN-3 and PN-5; assay type: cell-based, Salmonella enterica
Description: FIGS. 30A-30C show the growth pattern of ST with and without peptide at 9-21 mM concentration. […] The plate was incubated in a TECAN Sunrise™ absorbance microplate reader at 37° C., measuring the OD 600 set at every 30 mins for 12 hrs., followed by bacterial enrichment to determine the minimal bactericidal concentration log CFU/mL.

[5] = tested on: various probiotic strains; assay type: cell-based; settings: at MIC (PN3 12 mM, PN5 15 mM)
Description: FIGS. 16A-16B show the effect of the peptide on the growth of various probiotic strains after treating at their minimal inhibitory concentrations of 12 and 15 mM of PN3 and PN5, respectively. […] FIG. 16B the effect of 15 mM of PN5 peptide. The bacteria (5×10^5 CFU/mL) were treated with peptides and grown at 37° C. for 24 hrs in an anaerobic condition except for E. coli Nissel 1917 and E. coli G58-1, which has grown in aerobic conditions for 12 hrs. After incubation, serially dilute the culture and counted the CFU/mL Bacterial inhibition percentage was calculated by comparing with no peptide treated control.

Biofilm-embedded APEC = assay: Effect of PN peptides on biofilm embedded APEC; assay type: cell-based, E. coli; settings: untreated 7.71 ± 0.72
[6] = tested on: various serovars of Salmonella; assay: PN3 and PN5 on various serovars of Salmonella; assay type: cell-based; settings: at MBC, 12 hrs
Description: Salmonella serovars (5×10^5 CFU/mL) were treated with peptides and grown at 37° C. for 12 hrs. In addition, bacterial inhibition percentage was calculated by comparing with no peptide control. […] Red: Bactericidal, Green: Non bactericidal.
FIGS. 32A-32B show the growth inhibition percentage of various serovars of Salmonella after treating with minimal inhibitory concentrations of peptides. […] Salmonella serovars (5×10^5 CFU/mL) were treated with peptides and grown at 37° C. for 12 hrs. In addition, bacterial inhibition percentage was calculated by comparing with no peptide control.

APEC [7] = assay: Kinetic time-inhibition assay of synthesized peptides; assay type: cell-based, E. coli; settings: 12 mM, 12 h
Description: Peptides were added to the APEC suspension in a 96-well plate, and plate was incubated in TECAN Sunrise™ absorbance microplate reader at 37° C. with OD600 measurement set at every 30 min for 12 hr. The sequences in FIG. 7 are […] (SEQ ID NO: 5), […] (SEQ ID NO: 18), […] (SEQ ID NO: 21), […] (SEQ ID NO: 26), and […] (SEQ ID NO: 32).
The five common highly abundant peptides in CFSs of both L. rhamnosus GG and B. lactis Bb12 ([…] (SEQ ID NO:5), […] (SEQ ID NO:18), […] (SEQ ID NO:21), […] (SEQ ID NO:26) and […] (SEQ ID NO:32)) were synthesized (GenScript, NJ, USA) and tested for anti-APEC activity by conducting kinetic time-inhibition assay as described previously. Briefly, peptides dissolved in dimethyl sulfoxide (DMSO) at 200 mM concentrations were added (12 mM; final concentration of 6% DMSO) to APEC suspension (10^5 CFU/mL; LB media) in a 96-well plate. The plate was then incubated in TECAN Sunrise™ absorbance microplate reader (NC, USA) at 37° C. with OD600 measurement set at every 30 mins for 12 h. Untreated APEC (0% DMSO) and APEC treated with 6% DMSO were included as controls. […] Three independent experiments were conducted.

APEC O78 [8] = assay: Resistance after 13 passages at 0.75×MIC; assay type: cell-based, E. coli
Description: FIGS. 18A-18B show the growth of APEC O78 at MIC of the peptides after growing the bacteria for 13 passages with a sublethal concentration (0.75×MIC) of peptides. […] The OD 600 was measured at every 30 mins for 12 hrs.

APEC O78 [9] = assay type: cell-based, E. coli; settings: 12 h
Description: FIGS. 13A-13C show the growth pattern of APEC O78 with and without peptide at 3-21 mM concentration. […] Various concentrations of peptides were added to the APEC suspension (5×10^5 CFU/mL) in a 96-well plate. The plate was incubated in a TECAN Sunrise™ absorbance microplate reader at 37° C., measuring the OD 600 set at every 30 mins for 12 hrs. After 12 hrs. incubation the bacteria were serially diluted and plated to count CFU/mL and calculated the inhibitory percentage using (Control-treated)/treated*100.
FIGS. 14A-14B show the growth pattern of APEC O78, treated with a combination of peptides at 3-21 mM concentration with respect to no peptide control. […] The two peptides were added together to the APEC suspension (5×10^5 CFU/mL) in a 96-well plate. The plate was incubated at 37° C. in a TECAN Sunrise™ absorbance microplate reader, measuring the OD 600 set at every 30 mins for 12 hrs. After incubation, the bacteria were serially diluted and plated to measure CFU/mL and calculate the inhibitory percentage using (Control-treated)/treated*100.

| Substance | Intracellular APEC (Intracellular APEC; 0.25 X, untreated 2.98 ± 0.87) | Intracellular APEC (Intracellular APEC; 0.75 X) | Intracellular APEC (Intracellular APEC; 1 X) | Intracellular APEC (Intracellular APEC; 1.5 X) | Minimal bactericidal concentration (ST) | Growth of B. longum, B. adolescentis, and B. theoiotamicron [5] | Growth of BB12, E. coli Nissel 1917 and E. coli G58-1 [5] | Growth of LGG [5] | Biofilm-embedded APEC (Biofilm-embedded APEC) | Bactericidal effect on eight Salmonella serotypes [6] | Inhibition of APEC growth (APEC [7]) | Bacterial resistance against the peptides (APEC O78 [8]) | Minimal inhibitory concentration (APEC O78 [9]) | also measured |
| --- | --- | --- | --- | --- | --- | --- | --- | --- | --- | --- | --- | --- | --- | --- |
| Bifidobacterium longum | – | – | – | – | – | – | – | – | – | – | – | – | – | Zone of inhibition (APEC O78 [1]): 0.0 ± 0.0 mm |
| NPSRQERR [Peptide P1] | – | – | – | – | – | – | – | – | – | – | – | – | – | Bodyweight (APEC [2]): no significant effect; MIC (Salmonella Saintpaul): 18 mM; MIC (Salmonella Brenderup): 18 mM; Bodyweight (APEC [3]): no significant effect; MIC50 (APEC O78 [4]): 14.7 mM; Growth inhibition against APEC serotypes (multiple APEC serotypes): 95.1-100%; MIC (Salmonella Javiana): 18 mM |
| VQAAQAGDTKPIEV [PN-3] | 2.64 ± 0.23 Log CFU/mL | 2.59 ± 0.30 Log CFU/mL | 2.50 ± 0.17 Log CFU/mL | 0.00 ± 0.00 Log CFU/mL | 21 mM | promoted the growth | inhibited the growth | unaffected | 4.21 ± 0.48 Log CFU/mL | kill all the eight serotypes of Salmonella with no viable colony | completely inhibitory | did not cause bacterial resistance | 12 mM | – |
| VTDTSGKAGTTKISNV [PN-5] | 2.34 ± 0.11 Log CFU/mL | 2.30 ± 0.00 Log CFU/mL | 0.00 ± 0.00 Log CFU/mL | 0.00 ± 0.00 Log CFU/mL | 21 mM | promoted the growth | inhibited the growth | slightly affected | 4.95 ± 0.07 Log CFU/mL | killed all serotypes except Saintpaul | completely inhibitory | did not cause bacterial resistance | 15 mM | – |
